Test results reported in the supplement of paper PMC10307832.

Legend:
Test in all cases: relative viability (nuclei count vs DMSO), 5 days (fraction); higher = more cells survive
AZD1208 + Palbociclib = compound: N[C@@H]1CCCN(c2c(/C=C3\SC(=O)NC3=O)cccc2-c2ccccc2)C1 [AZD1208] + CC(=O)c1c(C)c2cnc(Nc3ccc(N4CCNCC4)cn3)nc2n(C2CCCC2)c1=O [Palbociclib] (partner 0.5 µM)
How it was run: (§1)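 Nuclei were stained with Hoechst during a one-step fixation (final 0.05% Triton X-100, 1% formaldehyde, 1 ug/ml Hoechst) carried out 5 days after dosing, then counted on 4× images. The cells, lung cancer lines in 1536-well plates, had been dosed by pin tool the day after seeding with one drug alone or a fixed anchor-drug dose plus five library-drug doses (not always all listed) in √10 steps. Relative viability is the nuclei count in treated wells divided by that in vehicle wells, and each value is the median of duplicate plates.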

AZD1208 + Luminespib = compound: N[C@@H]1CCCN(c2c(/C=C3\SC(=O)NC3=O)cccc2-c2ccccc2)C1 [AZD1208] + CCNC(=O)c1noc(-c2cc(C(C)C)c(O)cc2O)c1-c1ccc(CN2CCOCC2)cc1 [Luminespib] (partner 0.01 µM)
How it was run: as §1

XMD14-99 + Lapatinib = compound: CN1CCN(CC1)C2=CC(=C(C=C2)NC3=NC(=C(S3)C(=O)C4=C(C=CC=C4Cl)Cl)N)OC [XMD14-99] + CS(=O)(=O)CCNCc1ccc(-c2ccc3ncnc(Nc4ccc(OCc5cccc(F)c5)c(Cl)c4)c3c2)o1 [Lapatinib] (partner 2 µM)
How it was run: as §1

AZD1208 + Phenformin = compound: N[C@@H]1CCCN(c2c(/C=C3\SC(=O)NC3=O)cccc2-c2ccccc2)C1 [AZD1208] + N=C(N)NC(=N)NCCc1ccccc1 [Phenformin] (partner 250 µM)
How it was run: as §1

| Cell Line | relative viability (AZD1208 + Palbociclib; first compound 0.08 µM) | relative viability (AZD1208 + Palbociclib; first compound 0.253 µM) | relative viability (AZD1208 + Palbociclib; first compound 0.8 µM) | relative viability (AZD1208 + Palbociclib; first compound 2.53 µM) | relative viability (AZD1208 + Palbociclib; first compound 8 µM) | relative viability (AZD1208 + Luminespib; first compound 0.08 µM) | relative viability (AZD1208 + Luminespib; first compound 0.253 µM) | relative viability (AZD1208 + Luminespib; first compound 0.8 µM) | relative viability (AZD1208 + Luminespib; first compound 2.53 µM) | relative viability (AZD1208 + Luminespib; first compound 8 µM) | relative viability (XMD14-99 + Lapatinib; first compound 0.08 µM) | relative viability (XMD14-99 + Lapatinib; first compound 0.8 µM) | relative viability (XMD14-99 + Lapatinib; first compound 2.53 µM) | relative viability (XMD14-99 + Lapatinib; first compound 8 µM) | relative viability (AZD1208 + Phenformin; first compound 0.08 µM) | relative viability (AZD1208 + Phenformin; first compound 0.253 µM) | relative viability (AZD1208 + Phenformin; first compound 0.8 µM) | relative viability (AZD1208 + Phenformin; first compound 2.53 µM) | relative viability (AZD1208 + Phenformin; first compound 8 µM) |
| --- | --- | --- | --- | --- | --- | --- | --- | --- | --- | --- | --- | --- | --- | --- | --- | --- | --- | --- | --- |
| NCI-H2228 | 0.764 | 0.911 | 0.804 | 0.6 | 0.656 | 0.162 | 0.112 | 0.125 | 0.136 | 0.163 | 0.952 | 0.9 | 0.811 | 0.291 | 0.364 | 0.316 | 0.209 | 0.269 | 0.216 |
| NCI-H322M | 0.488 | 0.467 |  | 0.5 | 0.502 | 0.784 | 0.767 | 0.794 | 0.803 | 0.88 | 0.573 | 0.583 | 0.609 | 0.598 | 0.761 | 0.75 | 0.731 | 0.741 | 0.782 |
| NCI-H1975 | 0.56 | 0.686 | 0.535 | 0.591 | 0.403 | 0.235 | 0.296 | 0.2 | 0.228 | 0.18 | 0.906 | 0.938 | 0.801 | 0.727 | 0.413 | 0.449 | 0.393 | 0.404 | 0.359 |
| NCI-H1944 | 0.314 | 0.304 | 0.295 | 0.311 | 0.251 | 0.765 | 0.711 | 0.548 | 0.557 | 0.346 | 0.748 | 0.828 | 0.843 | 0.613 | 0.197 | 0.201 | 0.179 | 0.172 | 0.136 |
| LU99A | 0.379 | 0.414 | 0.398 | 0.339 | 0.319 | 0.306 | 0.292 | 0.204 | 0.182 | 0.238 | 0.94 | 0.976 | 0.879 | 0.695 | 0.871 | 0.921 | 0.965 | 0.764 | 0.638 |
| NCI-H2405 | 0.497 | 0.536 | 0.505 | 0.51 | 0.418 | 0.652 | 0.464 | 0.47 | 0.455 | 0.517 | 1.1 | 1.16 | 0.971 | 0.778 | 0.385 | 0.384 | 0.35 | 0.362 | 0.35 |
| NCI-H2023 | 0.34 | 0.39 | 0.333 | 0.373 | 0.332 | 0.677 | 0.75 | 0.588 | 0.597 | 0.416 | 0.737 | 0.989 | 0.828 | 0.372 | 0.394 | 0.386 | 0.348 | 0.367 | 0.295 |
| HCC-15 | 0.748 | 0.872 | 0.68 | 0.711 | 0.657 | 0.359 | 0.235 | 0.319 | 0.431 | 0.192 | 0.867 | 0.894 | 0.792 | 0.611 | 0.431 | 0.491 | 0.459 | 0.428 | 0.316 |
| HCC-44 | 1.01 | 0.941 | 0.976 | 0.968 | 1.02 | 0.996 | 1.1 | 0.963 | 1.04 | 1.04 | 1.12 | 0.951 | 1.09 | 0.861 | 0.219 | 0.202 | 0.172 | 0.147 | 0.176 |
| COR-L23 | 0.288 | 0.312 | 0.256 | 0.295 | 0.244 | 0.585 | 0.749 | 0.529 | 0.721 | 0.508 | 0.906 | 0.924 | 0.931 | 0.517 | 0.491 | 0.469 | 0.417 | 0.419 | 0.408 |
| HCC-78 | 0.464 | 0.427 | 0.466 | 0.446 | 0.452 |  |  |  |  |  | 0.911 | 0.751 | 0.858 | 0.648 | 0.766 | 1.03 | 0.692 | 0.753 | 0.644 |
| NCI-H1299 |  |  |  |  |  |  |  |  |  |  | 0.924 | 0.925 | 0.925 | 0.813 |  |  |  |  |  |
| LCLC-103H | 0.494 | 0.417 | 0.52 | 0.462 | 0.434 | 1.01 | 1.01 | 0.995 | 0.859 | 0.944 |  |  |  |  | 0.317 | 0.246 | 0.323 | 0.315 | 0.28 |
| ChaGo-K-1 | 0.905 | 0.969 | 0.874 | 0.906 | 0.884 | 0.676 | 0.655 | 0.596 | 0.528 | 0.392 |  |  |  |  | 0.54 | 0.569 | 0.524 | 0.475 | 0.373 |
| NCI-H1648 | 0.277 | 0.255 | 0.244 | 0.227 | 0.294 |  |  |  |  |  |  |  |  |  |  |  |  |  |  |
| NCI-H1563 |  |  |  |  |  | 0.556 | 0.532 | 0.561 | 0.478 | 0.504 | 0.85 | 1.1 | 0.906 | 0.824 | 0.64 | 0.644 | 0.709 | 0.617 | 0.665 |
| A549 |  |  |  |  |  |  |  |  |  |  | 0.857 | 0.923 | 0.983 | 0.685 | 0.157 | 0.172 | 0.168 | 0.132 | 0.127 |
| NCI-H522 | 0.915 | 1.09 | 0.896 | 0.942 | 0.76 | 1.03 | 1.15 | 0.841 | 0.935 | 0.973 |  |  |  |  | 0.614 | 0.678 | 0.569 | 0.618 | 0.479 |
| NCI-H441 | 0.192 | 0.196 | 0.204 | 0.178 | 0.23 | 0.393 | 0.331 | 0.26 | 0.342 | 0.265 |  |  |  |  | 0.782 | 0.66 | 0.609 | 0.641 | 0.556 |
| NCI-H1623 |  |  |  |  |  | 0.444 | 0.393 | 0.365 | 0.324 | 0.372 |  |  |  |  | 0.573 | 0.642 | 0.593 | 0.548 | 0.611 |
| SW 900 | 0.524 | 0.49 | 0.497 | 0.571 | 0.511 | 0.191 | 0.172 | 0.167 | 0.185 | 0.162 |  |  |  |  | 0.624 | 0.852 | 0.397 | 0.503 | 0.384 |
| IA-LM |  |  |  |  |  |  |  |  |  |  | 0.821 | 0.603 | 0.511 | 0.301 |  |  |  |  |  |
| EBC-1 |  |  |  |  |  |  |  |  |  |  | 0.252 | 0.207 | 0.2 | 0.173 |  |  |  |  |  |
